# Results: patent US20250163104A1, “MACROCYCLIC IMMUNOMODULATORS” (priority 2021, published 2025)
# Where a SMILES comes first, the peptide text is derived from it. Bridges are numbered along the chain shown (N, C = ends). [ ]: non-standard residue; d: D form. The star is where a group is joined. ξ: configuration not given here. Phe(4-COOH) = N[C@@H](Cc1ccc(C(=O)O)cc1)C(=O)O; Ala(thiazol-5-yl) = N[C@@H](Cc1cncs1)C(=O)O; Bip = N[C@@H](Cc1ccc(-c2ccccc2)cc1)C(=O)O; 4Pal = N[C@@H](Cc1ccncc1)C(=O)O; Cha = N[C@@H](CC1CCCCC1)C(=O)O; Cit = NC(=O)NCCC[C@H](N)C(=O)O; Ile(3ξ) = CCC(C)[C@H](N)C(=O)O; Thr(3ξ) = CC(O)[C@H](N)C(=O)O; Carboxymethyl = O=C(O)C*; Nle = CCCC[C@H](N)C(=O)O; Orn = NCCC[C@H](N)C(=O)O; Dab = NCC[C@H](N)C(=O)O; Dap = NC[C@H](N)C(=O)O
# Target: T1, human PD-1 / PD-L1-Ig binding on Jurkat cell line over-expressing human PD-1 (Jurkat-PD-1) (Homo sapiens, UniProt Q15116)
# T1 construct: expressed in transfected cells; host or cells: Jurkat
# T1 sequence (Q15116 25-288): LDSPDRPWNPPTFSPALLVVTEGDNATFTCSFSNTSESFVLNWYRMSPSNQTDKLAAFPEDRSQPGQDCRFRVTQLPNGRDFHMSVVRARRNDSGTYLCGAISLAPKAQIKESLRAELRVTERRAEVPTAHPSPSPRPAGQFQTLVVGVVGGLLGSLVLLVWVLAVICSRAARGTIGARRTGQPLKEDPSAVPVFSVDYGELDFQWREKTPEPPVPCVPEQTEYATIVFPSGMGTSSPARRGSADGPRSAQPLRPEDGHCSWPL
# Assay: Jurkat-PD-1 Cell Binding High-Content Screening Assay (CBA)
# Format: cell-based
# Conditions: Jurkat-PD-1 cells, PE-labeled PD-L1-Ig 20 nM final; read-out: Jurkat HPD1_PDL1 IC50
# How it was run: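 Cell-bound PE-labeled PD-L1-Ig (20 nM final, 1 h) measured by high-content imaging after fixation and Hoechst 33342 counterstain. Compound was applied first for 2 h at 37° C. to Jurkat cells over-expressing human PD-1 in DMEM with 10% FCS.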
row,IC50 [nM],SMILES
1,5.9,CC(C)C[C@H]1NC(=O)[C@H](CCCN)NC(=O)[C@H](C(C)C)NC(=O)[C@H](Cc2ccc(-c3ccccc3)cc2)NC(=O)[C@H](C(C)C)NC(=O)[C@H](Cc2c[nH]c3ccccc23)NC(=O)[C@H](CC(=O)O)NC(=O)[C@H](Cc2ccc(OCC(=O)O)cc2)NC(=O)[C@H](Cc2cnc[nH]2)NC(=O)CSC[C@@H](C(=O)N[C@@H](CC(N)=O)C(N)=O)NC(=O)[C@H](C(C)O)NC(=O)[C@H](C(C)C)NC(=O)[C@H](CC2CCCCC2)NC(=O)[C@H](CCN)NC1=O (stereo partly drawn) [Compound 2548] ({CH2CO}-HY(Carboxymethyl)DWV[Bip]V[Orn][dL][Dab][Cha]V[Thr(3ξ)]CN-NH2; thioether N-14)
2,42.8,CC(C)C[C@H]1NC(=O)[C@H](CCCN)NC(=O)[C@H](CCC(=O)O)NC(=O)[C@H](Cc2ccc(-c3ccccc3)cc2)NC(=O)[C@H](C(C)C)NC(=O)[C@H](Cc2c[nH]c3ccccc23)NC(=O)[C@H](CC(=O)O)NC(=O)[C@H](Cc2ccc(OCC(=O)O)cc2)NC(=O)[C@H](CN)NC(=O)CSC[C@@H](C(=O)N[C@@H](C)C(N)=O)NC(=O)[C@H]([C@@H](C)O)NC(=O)[C@H](C(C)C)NC(=O)[C@H](Cc2cncs2)NC(=O)[C@H](CCN)NC1=O [Compound 1503] ({CH2CO}-[Dap]Y(Carboxymethyl)DWV[Bip]E[Orn][dL][Dab][Ala(thiazol-5-yl)]VTCA-NH2; thioether N-14)
3,17.2,COC[C@@H]1NC(=O)[C@H](Cc2c[nH]c3ccccc23)NC(=O)[C@H](CC(=O)O)NC(=O)[C@H](Cc2ccc(OCC(=O)O)cc2)NC(=O)[C@H](CN)NC(=O)CSC[C@@H](C(=O)N[C@@H](C)C(N)=O)NC(=O)[C@H]([C@@H](C)O)NC(=O)[C@H](C(C)C)NC(=O)[C@H](CC2CCCCC2)NC(=O)[C@H](CCN)NC(=O)[C@@H](CC(C)C)NC(=O)[C@H](CCCN)NC(=O)[C@H](CCCNC(N)=O)NC(=O)[C@H](Cc2ccc(-c3ccccc3)cc2)NC1=O [Compound 1002] ({CH2CO}-[Dap]Y(Carboxymethyl)DWS(Me)[Bip][Cit][Orn][dL][Dab][Cha]VTCA-NH2; thioether N-14)
4,11.5,CCCC[C@H]1NC(=O)[C@H](CCCN)NC(=O)[C@H]([C@@H](C)CC)NC(=O)[C@H](Cc2ccc(-c3ccccc3)cc2)NC(=O)[C@H](C(C)C)NC(=O)[C@H](Cc2c[nH]c3ccccc23)NC(=O)[C@H](CC(=O)O)NC(=O)[C@H](Cc2ccc(OCC(=O)O)cc2)NC(=O)[C@H](Cc2ccc(OCC(=O)O)cc2)NC(=O)CSC[C@@H](C(=O)N[C@@H](C)C(N)=O)NC(=O)[C@H]([C@@H](C)O)NC(=O)[C@H](C(C)C)NC(=O)[C@H](CC2CCCCC2)NC(=O)[C@H](CCN)NC1=O [Compound 1706]
5,3,CC(C)C[C@H]1NC(=O)[C@H](CCCN)NC(=O)[C@H](C(C)C)NC(=O)[C@H](Cc2ccc(-c3ccccc3)cc2)NC(=O)[C@H](C(C)C)NC(=O)[C@H](Cc2c[nH]c3ccccc23)NC(=O)[C@H](CC(=O)O)NC(=O)[C@H](Cc2ccc(OCC(=O)O)cc2)NC(=O)[C@H](Cc2cnc[nH]2)NC(=O)CSC[C@@H](C(=O)N[C@H](C)C(N)=O)NC(=O)[C@H](C(C)O)NC(=O)[C@H](C(C)C)NC(=O)[C@H](CC2CCCCC2)NC(=O)[C@H](CCN)NC1=O (stereo partly drawn) [Compound 2563] ({CH2CO}-HY(Carboxymethyl)DWV[Bip]V[Orn][dL][Dab][Cha]V[Thr(3ξ)]C[dA]-NH2; thioether N-14)

# More lines, now with the values behind:
row,SMILES,IC50 [nM]
1,CCCC[C@@H]1NC(=O)[C@H](CCN)NC(=O)[C@@H](CC(C)C)NC(=O)[C@H](CCCN)NC(=O)[C@H](C(C)C)NC(=O)[C@H](Cc2ccc(-c3ccccc3)cc2)NC(=O)[C@H](C(C)C)NC(=O)[C@H](Cc2c[nH]c3ccccc23)NC(=O)[C@H](CC(=O)O)NC(=O)[C@H](Cc2ccc(O)cc2)NC(=O)[C@H](CC(N)=O)NC(=O)CSC[C@@H](C(=O)N[C@@H](C)C(N)=O)NC(=O)[C@H]([C@@H](C)O)NC(=O)[C@H](C(C)C)NC1=O [Compound 1171] ({CH2CO}-NYDWV[Bip]V[Orn][dL][Dab][Nle]VTCA-NH2; thioether N-14),26.4
2,CC(C)C[C@@H]1NC(=O)[C@H](CCN)NC(=O)[C@@H](CC(C)C)NC(=O)[C@H](CCN)NC(=O)[C@H](CCC(=O)O)NC(=O)[C@H](Cc2ccc(-c3ccccc3)cc2)NC(=O)[C@H](C(C)C)NC(=O)[C@H](Cc2c[nH]c3ccccc23)NC(=O)[C@H](CC(=O)O)NC(=O)[C@H](Cc2ccncc2)NC(=O)[C@H](CN)NC(=O)CSC[C@@H](C(=O)N[C@@H](C)C(N)=O)NC(=O)[C@H](CO)NC(=O)[C@H](C(C)C)NC1=O [Compound 1267] ({CH2CO}-[Dap][4Pal]DWV[Bip]E[Dab][dL][Dab]LVSCA-NH2; thioether N-14),99.9
3,CC(C)C[C@@H]1NC(=O)[C@H](CCN)NC(=O)[C@@H](CC(C)C)NC(=O)[C@H](CCN)NC(=O)[C@H](CCC(=O)O)NC(=O)[C@H](Cc2ccc(-c3ccccc3)cc2)NC(=O)[C@H](C(C)C)NC(=O)[C@H](Cc2c[nH]c3ccccc23)NC(=O)[C@H](CC(=O)O)NC(=O)[C@H](Cc2ccc(C(=O)O)cc2)NC(=O)[C@H](Cc2ccc(OCC(=O)O)cc2)NC(=O)CSC[C@@H](C(=O)N[C@@H](C)C(N)=O)NC(=O)[C@H](CO)NC(=O)[C@H](C(C)C)NC1=O [Compound 1269] ({CH2CO}-Y(Carboxymethyl)[Phe(4-COOH)]DWV[Bip]E[Dab][dL][Dab]LVSCA-NH2; thioether N-14),40.4
4,CC(C)C[C@H]1NC(=O)[C@H](CCCN)NC(=O)[C@H](C(C)C)NC(=O)[C@H](Cc2ccc(-c3ccccc3)cc2)NC(=O)[C@H](C(C)C)NC(=O)[C@H](Cc2c[nH]c3ccccc23)NC(=O)[C@H](CC(=O)O)NC(=O)[C@H](Cc2ccc(OCC(=O)O)cc2)NC(=O)[C@H](Cc2ccc(OCC(=O)O)cc2)NC(=O)CSC[C@@H](C(=O)N[C@@H](C)C(N)=O)NC(=O)[C@H](Cc2cnc[nH]2)NC(=O)[C@H](C(C)C)NC(=O)[C@H](CC2CCCCC2)NC(=O)[C@H](CCN)NC1=O [Compound 1752] ({CH2CO}-Y(Carboxymethyl)Y(Carboxymethyl)DWV[Bip]V[Orn][dL][Dab][Cha]VHCA-NH2; thioether N-14),6.7
5,CC(C)C[C@@H]1NC(=O)[C@H](CC(N)=O)NC(=O)[C@@H](CC(C)C)NC(=O)[C@H](CN)NC(=O)[C@H](C(C)C)NC(=O)[C@H](Cc2ccc(-c3ccccc3)cc2)NC(=O)[C@H](C(C)C)NC(=O)[C@H](Cc2c[nH]c3ccccc23)NC(=O)[C@H](CC(=O)O)NC(=O)[C@H](Cc2ccc(OCC(=O)O)cc2)NC(=O)[C@H](Cc2ccc(OCC(=O)O)cc2)NC(=O)CSC[C@@H](C(=O)NCC(N)=O)NC(=O)[C@H](CO)NC(=O)[C@H](C(C)C)NC1=O [Compound 1292] ({CH2CO}-Y(Carboxymethyl)Y(Carboxymethyl)DWV[Bip]V[Dap][dL]NLVSCG-NH2; thioether N-14),7.2

# Same assay, conditions: read-out: Jurkat HPD1_PDL1 IC50; Jurkat-PD-1 cells, PE-labeled PD-L1-Ig 20 nM final
row,SMILES,IC50 [nM]
1,CCC(C)[C@@H]1NC(=O)[C@H](Cc2ccc(-c3ccccc3)cc2)NC(=O)[C@H](CC(C)C)NC(=O)[C@H](Cc2c[nH]c3ccccc23)NC(=O)[C@H](CC(=O)O)NC(=O)[C@H](Cc2ccc(OCC(=O)O)cc2)NC(=O)[C@H](Cc2ccncc2)NC(=O)CSC[C@@H](C(=O)N[C@@H](CC(N)=O)C(=O)O)NC(=O)[C@H](CO)NC(=O)[C@H](C(C)C)NC(=O)[C@H](CC(C)C)NC(=O)[C@H](CCN)NC(=O)[C@@H](CC(C)C)NC(=O)[C@H](CCCN)NC1=O (stereo partly drawn) [Compound 2582] ({CH2CO}-[4Pal]Y(Carboxymethyl)DWL[Bip][Ile(3ξ)][Orn][dL][Dab]LVSCN-OH; thioether N-14),9.8
